Values of other authors as cited in US20220054558A1, “COMPOSITIONS COMPRISING BACTERIAL STRAINS” (4D Pharma Research Limited, priority 2018, published 2022).

Test system: C. difficile
Details: reference [19]

CCCCC(=O)O [Valeric acid]
viability of C. difficile: reduce the viability
